Consider six compounds from patent US9382295B2, “Cyclic depsipeptide compounds and their uses” (Cypralis Limited, priority 2012, dated 2016).

Molecules are shown by their SMILES. Values after ≈ are worked out from the molar mass of the structure shown. Read-outs that look alike come from different tables or passages of the source. Numbered stars: 1 amine (or outer) side, 2 acyl side, 3 side chain; on linkers, the order of the positions; unused ones are H or OH. Square brackets hold non-standard residues; d marks the D form. Peptide text beside a SMILES is read from it. X2 = C[C@H](CCCc1cccc(N2CCOCC2)n1)[C@@H](O)[C@H](C(=O)[*:2])N(C)[*:1]; X5 = C[C@H](CCN1CCS(=O)(=O)CC1)[C@@H](O)[C@H](C(=O)[*:2])N(C)[*:1]; X3 = C[C@H](CCN1CC2CCC(C1)O2)[C@@H](O)[C@H](C(=O)[*:2])N(C)[*:1]; X1 = Cc1cccc(CCC[C@@H](C)[C@@H](O)[C@H](C(=O)[*:2])N(C)[*:1])n1; X4 = C[C@H](C/C=C/c1ncccn1)[C@@H](O)[C@H](C(=O)[*:2])N(C)[*:1]; d(aThr) = C[C@@H](O)[C@@H](N)C(=O)O; NMeL = CN[C@@H](CC(C)C)C(=O)O; dNMeL = CN[C@H](CC(C)C)C(=O)O; dNMeV = CN[C@@H](C(=O)O)C(C)C; Hiv = CC(C)[C@H](O)C(=O)O; Sar = CNCC(=O)O Where only a bound is given, the exact number is not on record here.

The term Ki denotes the equilibrium dissociation constant of an inhibitor or competing ligand from its target. What is called solubility is the concentration that dissolves in the medium under given conditions.

The target of one data set is T1, cyclophilin A (Cyp A) (Homo sapiens, UniProt P62937).
T1 construct: purchased Sigma C3805
T1 sequence (P62937 whole entry): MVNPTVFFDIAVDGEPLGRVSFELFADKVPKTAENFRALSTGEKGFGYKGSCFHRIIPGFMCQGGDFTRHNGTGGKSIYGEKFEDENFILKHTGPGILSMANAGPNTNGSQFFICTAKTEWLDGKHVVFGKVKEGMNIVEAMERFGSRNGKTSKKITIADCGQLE
Description: Protease-free PPIase assay, cyclophilin A. It counts as biochemical. A digest of the protocol:
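Protease-free cis-trans isomerisation: 2 nM recombinant human cyclophilin A with 60 μM succinimide-peptide substrate in 35 mM HEPES pH 7.8 plus DTT, at 10.0 °C, max 0.5% DMSO. Absorbance at 330 nm was fitted to first-order kinetics, background subtracted, and catalytic rates versus inhibitor concentration gave Ki.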

Data set [1] is described as follows: Water solubility assay (pH 7.8 buffer). The data set is classed as physicochemical. A digest of the protocol: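 DMSO stocks were diluted into 35 mM HEPES pH 7.8 to final 0–100 μM with 1% DMSO, in triplicate. Plates were shaken 18 h at 25 °C, then precipitation was detected as increased absorbance at 650 nm. Values give the concentration (μM) at which the compound remains in solution.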

Data set [2] concerns the target T2, calcineurin/cyclophilin A (Homo sapiens, UniProt P62937+P63098+Q08209).
T2 construct: purchased Enzo Life Sciences (calcineurin, calmodulin); Sigma (CypA) BML-AK804; C3805
Description: Calcineurin phosphatase (CaN) assay in the presence of Cyp A. The data set is classed as biochemical. As to conditions: inhibitor in 1:1 complex with Cyp A; read-out: CaN + CypA (IC50 in the calcineurin/cyclophilin A assay). An excerpt:
**Calcineurin Phosphatase (CaN) Assay The calcineurin phosphatase assay is a means for estimating the immunosuppressive potential of a test compound. Calcineurin is a serine-threonine protein phosphatase that on activation dephosphorylates members of the nuclear factor of activated T cells (NFAT), which are important in T lymphocyte activation. […] To investigate the immunosuppressive potential of exemplary compounds of Formula 1, which are novel cycloundecadepsipeptide compounds, their ability to inhibit calcineurin activity was measured in the presence of Cyp A. The CaN assay kit used is based on a colorimetric assay for measuring calcineurin phosphatase activity, and it is commercially available (Enzo Life Sciences and Calbiochem). Calmodulin is also required for calcineurin activity and RH phosphopeptide is used as an efficient peptide substrate for calcineurin. […] The detection of free phosphate released is based on the classic Malachite green assay. Enzo Life Sciences CaN Assay Kit: BML-AK804 2× assay buffer: 100 mM Tris, pH7.5, 200 mM NaCl, 12 mM MgCl2, 1 mM DTT, 0.05% NP-40, 1 mM CaCl2 Calmodulin (Human, Recombinant): was thawed on ice, diluted 1:50 with 2× assay buffer, and then stored on ice. Calcineurin: was thawed quickly, stored on ice immediately, diluted 1:12.5 with 1× assay buffer, and then stored on ice. R-II Substrate: 915 μL ultrapure water (UPW) was added to the 1.5 mg vial substrate to give a final concentration of 0.75 mM. Inhibitors: 2.5 mM inhibitor in 100% DMSO. Cyp A: recombinant human CypA (Sigma C3805), 1 mg/ml; Recombinant 6-his tagged CypA prepared by the Univ. of Edinburgh was also used. […] Inhibitor dilutions: inhibitor compounds were diluted in UPW in polypropylene low-binding 96 well plates at 5x the final assay concentration. For samples ‘without Cyp A’, a 4-point dilution series of the inhibitor was prepared in duplicate to obtain a final assay concentration of 10, 1, 0.1 and 0.01 μM. […] Cs A inhibitor controls were also prepared to obtain a final concentration of 10 μM Cs A with and without 10 μM Cyp A. Assay Setup: using the half area 96 well plates supplied with the kit, 10 μl UPW was added to duplicate wells to provide the non-inhibited control. 10 μl of the inhibitor or the inhibitor/Cyp A complex was added to the appropriate sample wells. 25 μl of the 2× assay buffer with CaM was added to all wells, then 5 μl of CaN was added to all wells (40 U per well final concentration) except duplicate ‘no calcineurin blank’ wells to which 5 μL 1× assay buffer was added. […] The reaction was started by the addition of 10 μl RII-peptide (0.15 mM final concentration). The reaction was allowed to proceed at 30° C. for a time period in which the reaction is linear for about 60 minutes. The reaction was then terminated by adding 100 μl of the Malachite Green reagent. […] The data were analyzed by subtracting ‘no Calcineurin blank’ from all the absorbance readings and plotting the background corrected absorbances against Log10 inhibitor concentration. A sigmoidal-dose response curve was fitted to the data using GraphPad Prism Software. […] It exerts its immunosuppressive activity by binding to cyclophilin A to form a complex, which then binds to calcineurin and thereby inhibits calcineurin activity.

In another data set the target is cyclophilin D (Cyp D) (Homo sapiens, UniProt P30405). As to the kind of experiment: Protease-free PPIase assay, cyclophilin D. It counts as biochemical. In outline:
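Cis-trans isomerization of a succinimide-peptide substrate (60 µM final) by 2 nM enzyme was followed at 330 nm in 35 mM HEPES pH 7.8 with 50 µM DTT, stirred at 10.0 °C, DMSO ≤0.5%. First-order rate constants minus background were fitted against inhibitor concentration to give Ki.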

Sequence of cyclophilin D (Cyp D) (P30405 30-207): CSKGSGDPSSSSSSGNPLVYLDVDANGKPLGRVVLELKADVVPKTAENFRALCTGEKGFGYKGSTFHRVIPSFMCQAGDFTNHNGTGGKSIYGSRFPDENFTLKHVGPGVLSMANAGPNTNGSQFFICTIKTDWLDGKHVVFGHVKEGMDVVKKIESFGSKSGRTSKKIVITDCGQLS
T2 sequence (P63098 whole entry, other chains not shown): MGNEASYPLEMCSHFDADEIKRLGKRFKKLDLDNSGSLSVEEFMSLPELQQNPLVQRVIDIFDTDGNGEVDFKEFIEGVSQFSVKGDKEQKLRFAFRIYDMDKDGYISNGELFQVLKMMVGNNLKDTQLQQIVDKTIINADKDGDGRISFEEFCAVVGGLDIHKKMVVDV
T2 sequence (P62937 whole entry, other chains not shown): as the sequence (P62937 whole entry) above

Turning to `Cc1cccc(CCC[C@@H](C)[C@@H](O)[C@@H]2C(=O)N[C@H]([C@@H](C)O)C(=O)N(C)CC(=O)N(C)[C@@H](CC(C)C)C(=O)N[C@H](CC(C)C)C(=O)N(C)[C@H](CC(C)C)C(=O)N[C@H](C)C(=O)O[C@@H](C(C)C)C(=O)N(C)[C@H](CC(C)C)C(=O)N[C@H](CC(C)C)C(=O)N(C)[C@H](C(C)C)C(=O)N2C)n1` [Example 17] (cyclo([Hiv][dNMeL][dL][dNMeV][X1][d(aThr)][Sar][NMeL][dL][dNMeL][dA])), the Ki on cyclophilin A (Cyp A) and on cyclophilin D (Cyp D) was 1 to 25 nM throughout. Also, in data set [1] (pH 7.8), the solubility at 18 h lay within 10 to 25 µM (≈ 13.3 to 33.2 µg/mL). In addition, in data set [2], the IC50 is > 1000 nM.

In the case of `CC(C)C[C@@H]1C(=O)N[C@H](CC(C)C)C(=O)N(C)[C@H](C(C)C)C(=O)N(C)[C@H]([C@H](O)[C@H](C)CCCc2cccc(N3CCOCC3)n2)C(=O)N[C@H]([C@@H](C)O)C(=O)N(C)CC(=O)N(C)[C@@H](CC(C)C)C(=O)N[C@H](CC(C)C)C(=O)N(C)[C@H](CC(C)C)C(=O)N[C@H](C)C(=O)O[C@@H](C(C)C)C(=O)N1C` [Example 20, cyclo-[(3R,4R,5S)-4-(hydroxy)-3-methyl-5-(methylamino)-1-(6-morpholin-4-yl-pyridin-2-yl)-heptanoic acid-Thr-Sar-MeLeu-Leu-MeLeu-Ala-D-Hiv-MeLeu-Leu-MeVal]] (cyclo([Hiv][dNMeL][dL][dNMeV][X2][d(aThr)][Sar][NMeL][dL][dNMeL][dA])), the inhibitory constant (Ki) on cyclophilin A (Cyp A) (protease-free PPIase assay, class symbols, read-out: CypA Ki) is 1 to 25 nM; on cyclophilin D (Cyp D) (protease-free PPIase assay, class symbols, read-out: CypD Ki) it was 1 to 25 nM. Further, the solubility at 18 h in data set [1] (35 mM HEPES buffer, 35 mM HEPES pH 7.8, 1% DMSO, 25° C., 18 h, concentration at which compound remains in solution, read-out: Solubility) was in the range of 10 to 25 µM (≈ 14 to 34.9 µg/mL). Also, the IC50 in data set [2] was > 5000 nM.

With `CC(C)C[C@@H]1C(=O)N[C@H](CC(C)C)C(=O)N(C)[C@H](C(C)C)C(=O)N(C)[C@H]([C@H](O)[C@H](C)C/C=C/c2ncccn2)C(=O)N[C@H]([C@@H](C)O)C(=O)N(C)CC(=O)N(C)[C@@H](CC(C)C)C(=O)N[C@H](CC(C)C)C(=O)N(C)[C@H](CC(C)C)C(=O)N[C@H](C)C(=O)O[C@@H](C(C)C)C(=O)N1C` [Example 15, cyclo-{(3R,4R,5S)-4-(hydroxy)-3-methyl-5-(methylamino)-1-(pyrimidin-2-yl)-hept-1-enoic acid-Thr-Sar-MeLeu-Leu-MeLeu-Ala-D-Hiv-MeLeu-Leu-MeVal}] (cyclo([Hiv][dNMeL][dL][dNMeV][X4][d(aThr)][Sar][NMeL][dL][dNMeL][dA])), the Ki at cyclophilin A (Cyp A) and at cyclophilin D (Cyp D) was 1 to 25 nM each time. The same compound had a solubility at 18 h in data set [1] (pH 7.8) of 10 to 25 µM (≈ 13.1 to 32.8 µg/mL). Also, the IC50 in data set [2] is > 1000 nM.

As to `CC(C)C[C@@H]1C(=O)N[C@H](CC(C)C)C(=O)N(C)[C@H](C(C)C)C(=O)N(C)[C@H]([C@H](O)[C@H](C)CCN2CCS(=O)(=O)CC2)C(=O)N[C@H]([C@@H](C)O)C(=O)N(C)CC(=O)N(C)[C@@H](CC(C)C)C(=O)N[C@H](CC(C)C)C(=O)N(C)[C@H](CC(C)C)C(=O)N[C@H](C)C(=O)O[C@@H](C(C)C)C(=O)N1C` [Example 23, cyclo-[(3R,4R,5S)-4-(hydroxy)-3-methyl-5-(methylamino)-1-N-(thiomorpholine 1,1-dioxide)-hexanoic acid-Thr-Sar-MeLeu-Leu-MeLeu-Ala-D-Hiv-MeLeu-Leu-MeVal]] (cyclo([Hiv][dNMeL][dL][dNMeV][X5][d(aThr)][Sar][NMeL][dL][dNMeL][dA])), the Ki on cyclophilin A (Cyp A) and on cyclophilin D (Cyp D) was 1 to 25 nM in each case. Besides, the solubility at 18 h in data set [1] (pH 7.8) was in the range of 75 to 100 µM (≈ 102 to 135 µg/mL). Moreover, in data set [2], the IC50 was > 10000 nM.

For `C/C=C/C[C@@H](C)[C@@H](O)[C@@H]1C(=O)N[C@H]([C@@H](C)O)C(=O)N(C)CC(=O)N(C)[C@@H](CC(C)C)C(=O)N[C@H](CC(C)C)C(=O)N(C)[C@H](CC(C)C)C(=O)N[C@H](C)C(=O)O[C@@H](C(C)C)C(=O)N(C)[C@H](CC(C)C)C(=O)N[C@H](CC(C)C)C(=O)N(C)[C@H](C(C)C)C(=O)N1C` [Example 1, Cyclo-(MeBmt-Thr-Sar-MeLeu-Leu-MeLeu-Ala-D-Hiv-MeLeu-Leu-MeVal), reference compound], the Ki on cyclophilin A (Cyp A) was found to be 1.7 nM; at cyclophilin D (Cyp D), 3.2 nM. This compound also returned a solubility at 18 h in data set [1] (pH 7.8) of 10 to 25 µM (≈ 12.5 to 31.2 µg/mL). Besides, the IC50 in data set [2] was 70 nM.

As to `CC(C)C[C@@H]1C(=O)N[C@H](CC(C)C)C(=O)N(C)[C@H](C(C)C)C(=O)N(C)[C@H]([C@H](O)[C@H](C)CCN2CC3CCC(C2)O3)C(=O)N[C@H]([C@@H](C)O)C(=O)N(C)CC(=O)N(C)[C@@H](CC(C)C)C(=O)N[C@H](CC(C)C)C(=O)N(C)[C@H](CC(C)C)C(=O)N[C@H](C)C(=O)O[C@@H](C(C)C)C(=O)N1C` [Example 22, cyclo-[(3R,4R,5S)-4-(hydroxy)-3-methyl-5-(methylamino)-1-N-(8-oxa-3-aza-bicyclo[3.2.1]octane)-hexanoic acid-Thr-Sar-MeLeu-Leu-MeLeu-Ala-D-Hiv-MeLeu-Leu-MeVal]] (cyclo([Hiv][dNMeL][dL][dNMeV][X3][d(aThr)][Sar][NMeL][dL][dNMeL][dA])), the Ki on cyclophilin A (Cyp A) and on cyclophilin D (Cyp D) was 1 to 25 nM throughout. The solubility at 18 h in data set [1] (pH 7.8) is 25 to 50 µM (≈ 33.3 to 66.6 µg/mL). Also, in data set [2], the IC50 is > 10000 nM.
